Reference: patent publication US7094787B2, “Compositions for regulating desire for smoking” (Taiyo Kagaku Co., Ltd., priority 2000, dated 2006)

Tested on: mice
Assay type: in vivo
Conditions: oral administration at 5 g/kg weight
From the text: The composition of the present invention is based on action for suppressing the craving for smoking that has been found for the theanine for the first time. The theanine has been known to be a main ingredient of sapidity in tea and used as a food additive for the sapidity. […] There is no limitation in an amount of addition based on the Food Hygiene Law. Further, unlike a conventional nicotine preparation, since there is no dependence, the composition of the present invention can suppress the craving for smoking safely and effectively.

CCNC(=O)CC[C@H](N)C(=O)O [theanine, γ-glutamyl ethylamide]
death in acute toxicity test: no case of death
